# From ChEMBL document CHEMBL1201862, “PubChem BioAssay data set” (2004)
# Active and inactive are the calls of the source.
# Assays:
# [1] = target: Transitional endoplasmic reticulum ATPase (Homo sapiens, UniProt P55072); assay: p97 ATPase inhibitors, dose response, biochemical (AID 1534)
# [2] = target: Transitional endoplasmic reticulum ATPase (Homo sapiens, UniProt P55072, C522A); assay: C522A mutant p97 ATPase inhibitors, dose response, counter-screen for p97 inhibitor project, biochemical, luminescence (AID 1544)
# [3] = microbe, parasite or virus in culture; assay type: functional; details: Mycobacterium tuberculosis
# [4] = Luminescence Cell-Based Dose Retest to Confirm Inhibitors of Cancer Stem Cells. [Related pubchem assays (depositor defined):AID2717, AID2721]; assay type: functional; details: Homo sapiens
# [5] = growth suppression of PTEN-null colon cells, dose response, cell-based, HCT116 PTEN knockout (AID 1047); assay type: functional;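 further: HCT116 colon tumor cells with PTEN knocked out; cells exposed to compound for 60 hours before readout; potency for loss of cell viability measured by luminescence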
# [6] = growth suppression of beta-catenin-knockout colon cells, dose response, cell-based, HCT116, human colon tumor (AID 1045); assay type: functional;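 further: HCT116 colon tumor cells with beta catenin knocked out; cells exposed to compound for 60 hours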
# [7] = target: Neurotensin receptor type 1 (Homo sapiens, UniProt P30989); assay type: functional;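 further: Image-based confirmatory dose-response assay measuring agonist activity at NTR1; NTR1-expressing U2OS osteosarcoma cells imaged for beta-arrestin GFP spot formation; agonist potency where compounds increase beta-arrestin recruitment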
# [8] = target: T1, Eukaryotic translation initiation factor 2-alpha kinase 3 (Homo sapiens, UniProt Q9NZJ5); assay: Counterscreen assay for PERK inhibitors: Dose response cell-based high throughput screening assay to measure inhibition of PERK at 6 hours. [Related pubchem assays: 1522, 1416 ]; assay type: functional
# [9] = target: T1, Eukaryotic translation initiation factor 2-alpha kinase 3; assay: Dose response cell-based high-throughput screening assay to measure PERK inhibition. [Related pubchem assays: 1416 ]; assay type: functional
# Staphylococcus aureus = assay: Inhibitors of Bacterial Quorum Sensing Structure Activity Relationship (SAR) Analysis: Dose Response Assay. [Related pubchem assays: 700, 527 ]; assay type: functional, organism-based
# Perilipin-1/ABHD5 = Perilipin-1/ABHD5 (Homo sapiens, UniProt O60240+Q8WTS1); assay: Luminescence-based biochemical high throughput dose response assay for inhibitors of the interaction of the lipase co-activator protein, abhydrolase domain containing 5 (ABHD5) with perilipin-1 (PLIN1) (2K validation set). [Related pubchem assays (depositor defined):AID493027, AID493057]
# [10] = target: T2, RNA-binding protein pos-1 (Caenorhabditis elegans, UniProt G5EF15); assay: inhibitors of POS-1/mex-3 RNA binding, dose response, biochemical, fluorescence polarization (AID 1964);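 further: purified POS-1 fused to maltose binding protein made in E. coli; potency of compounds blocking POS-1 binding to fluorescent RNA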
# T2 sequence (G5EF15 whole entry): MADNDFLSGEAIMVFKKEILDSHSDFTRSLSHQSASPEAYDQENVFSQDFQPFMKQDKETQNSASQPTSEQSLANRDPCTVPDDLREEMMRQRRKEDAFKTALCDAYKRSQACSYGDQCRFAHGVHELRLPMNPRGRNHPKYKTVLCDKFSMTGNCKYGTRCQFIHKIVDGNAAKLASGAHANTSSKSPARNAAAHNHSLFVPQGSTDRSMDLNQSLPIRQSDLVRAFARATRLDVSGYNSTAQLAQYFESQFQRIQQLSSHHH
# Hexokinase HKDC1 = Hexokinase HKDC1 (Homo sapiens, UniProt Q2TB90); assay: HKDC1 hexokinase inhibitors, dose response, biochemical, W721R variant (AID 504729); assay type: functional
# [11] = target: 1-acylglycerol-3-phosphate O-acyltransferase ABHD5/Perilipin-5 (Homo sapiens, UniProt Q00G26+Q8WTS1); assay: Luminescence-based biochemical high throughput dose response assay for inhibitors of the interaction of the lipase co-activator protein, abhydrolase domain containing 5 (ABHD5) with perilipin-5 (MLDP; PLIN5) (2K validation set). [Related pubchem assays (depositor defined):AID493035, AID493241]
# [12] = target: Induced myeloid leukemia cell differentiation protein Mcl-1 (Homo sapiens, UniProt Q07820); assay type: functional
# [13] = target: T3, Zinc finger protein mex-5 (Caenorhabditis elegans, UniProt Q9XUB2); assay: MEX-5/TCR-2 RNA interaction inhibitors, dose response, biochemical, C. elegans, fluorescence polarization (AID 1960)
# T3 sequence (Q9XUB2 whole entry): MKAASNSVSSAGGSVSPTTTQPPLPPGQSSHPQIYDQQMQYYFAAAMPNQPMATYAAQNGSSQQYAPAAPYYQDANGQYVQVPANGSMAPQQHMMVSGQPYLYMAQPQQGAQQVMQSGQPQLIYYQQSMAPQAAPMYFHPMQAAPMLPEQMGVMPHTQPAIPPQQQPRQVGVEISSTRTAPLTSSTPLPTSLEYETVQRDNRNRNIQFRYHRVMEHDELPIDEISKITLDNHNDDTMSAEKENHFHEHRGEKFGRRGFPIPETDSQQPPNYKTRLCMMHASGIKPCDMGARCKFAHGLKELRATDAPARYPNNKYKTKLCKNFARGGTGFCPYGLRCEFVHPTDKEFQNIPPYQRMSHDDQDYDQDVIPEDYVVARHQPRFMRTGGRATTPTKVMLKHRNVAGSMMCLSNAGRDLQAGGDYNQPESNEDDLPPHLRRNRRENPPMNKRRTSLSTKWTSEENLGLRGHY
# [14] = target: DNA dC->dU-editing enzyme APOBEC-3G (Homo sapiens, UniProt Q9HC16); assay: Dose Response confirmation of small molecule APOBEC3G DNA Deaminase Inhibitors via a fluorescence-based single-stranded DNA deaminase assay. [Related pubchem assays (depositor defined):AID493012, AID493028]; assay type: functional
# [15] = target: DNA dC->dU-editing enzyme APOBEC-3A (Homo sapiens, UniProt P31941); assay: APOBEC3A DNA deaminase inhibitors, dose response, biochemical (AID 504722); assay type: functional
# Beta-galactosidase = Beta-galactosidase (Escherichia coli, UniProt Q8VNN2); assay: beta-galactosidase enzyme inhibitors and activators, dose response, artefact control for CCR6 antagonist project, biochemical, E. coli enzyme, set 3 (AID 504712); assay type: functional
# [16] = target: Heat shock cognate 71 kDa protein (Homo sapiens, UniProt P11142); assay: In Vitro Hsc70 Dose Response Fluorescence Polarization Assay. [Related pubchem assays: 1072 ]
# [17] = target: Glyceraldehyde-3-phosphate dehydrogenase (Homo sapiens, UniProt P04406)
# [18] = target: Heat shock 70 kDa protein 1A (Homo sapiens, UniProt P0DMV8); assay: Hsp70 inhibitors, SAR follow-up, biochemical, fluorescence polarization (AID 1072)
# [19] = target: Polyadenylate-binding protein 1 (Homo sapiens, UniProt P11940); assay: PABP poly(A) RNA binding inhibitors, primary screen, biochemical, fluorescence polarization, uHTS (AID 2014)
# [20] = target: Eukaryotic translation initiation factor 4H (Homo sapiens, UniProt Q15056); assay: human eIF4H binding inhibitors, primary screen, translation initiation inhibitor project, biochemical, uHTS, fluorescence polarization (AID 2012)
# [21] = inhibitors of SNCA 5'UTR-driven reporter translation, confirmation, H4 neuroglioma cells, luminescence (AID 1988); assay type: functional, cell-based
# [22] = inhibitors of firefly luciferase expression or activity, dose response, H4 neuroglioma cells, luminescence (AID 1990); assay type: functional, cell-based
# cells = assay type: functional, cell-based
# [23] = luciferase reporter signal reduction – luminescence, H4-C neuroglioblastoma cells, dose response (AID 2458); assay type: functional, cell-based;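 further: H4 neuroglioblastoma cells stably carrying a luciferase reporter gene fusion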
# [24] = inhibitors of SNCA 5'UTR-driven translation, confirmation, luminescence, H4 neuroglioblastoma cells, dose confirmation (AID 2454); assay type: functional, cell-based;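 further: H4 neuroglioblastoma cells carrying an alpha-synuclein 5'UTR luciferase reporter; potency for inhibition of the luciferase signal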
# [25] = target: Peroxisome proliferator-activated receptor gamma/Nuclear receptor corepressor 2 (Homo sapiens, UniProt P37231+Q9Y618); assay type: functional
# [26] = target: Photoreceptor-specific nuclear receptor (Homo sapiens, UniProt Q9Y5X4); assay type: functional;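 further: potency for compounds that break the NR2E3 corepressor complex and count as activators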
# [27] = target: T4, E3 ubiquitin-protein ligase XIAP (Homo sapiens, UniProt P98170); assay: Counter Screen using XIAP-Bir3 for Chemical Antagonists of Bir1/2 domains of IAP-family anti-apoptotic proteins. [Related pubchem assays (depositor defined):AID1018, AID1449, AID1514, AID1638, AID1749, AID1750, AID488957, AID488963]
# [28] = target: T4, E3 ubiquitin-protein ligase XIAP; assay: XIAP antagonists, biochemical, IAP family, fluorescence polarization (AID 1018); assay type: functional
# Chaperone protein dnaK = Chaperone protein dnaK (Escherichia coli, UniProt C3TRK2); assay: DnaK beta-domain binding affinity, SAR follow-up, orthogonal assay for DnaK modulator project, biophysical, isothermal titration calorimetry, full-length DnaK (AID 1495)
# Cytochrome P450 2D6 = Cytochrome P450 2D6 (Homo sapiens, UniProt P10635); assay: qHTS Assay for Inhibitors and Substrates of Cytochrome P450 2D6. [Related pubchem assays: 410 ]; assay type: ADME; details: read-out: Potency
# Cytochrome P450 2D6, sequence (P10635 whole entry): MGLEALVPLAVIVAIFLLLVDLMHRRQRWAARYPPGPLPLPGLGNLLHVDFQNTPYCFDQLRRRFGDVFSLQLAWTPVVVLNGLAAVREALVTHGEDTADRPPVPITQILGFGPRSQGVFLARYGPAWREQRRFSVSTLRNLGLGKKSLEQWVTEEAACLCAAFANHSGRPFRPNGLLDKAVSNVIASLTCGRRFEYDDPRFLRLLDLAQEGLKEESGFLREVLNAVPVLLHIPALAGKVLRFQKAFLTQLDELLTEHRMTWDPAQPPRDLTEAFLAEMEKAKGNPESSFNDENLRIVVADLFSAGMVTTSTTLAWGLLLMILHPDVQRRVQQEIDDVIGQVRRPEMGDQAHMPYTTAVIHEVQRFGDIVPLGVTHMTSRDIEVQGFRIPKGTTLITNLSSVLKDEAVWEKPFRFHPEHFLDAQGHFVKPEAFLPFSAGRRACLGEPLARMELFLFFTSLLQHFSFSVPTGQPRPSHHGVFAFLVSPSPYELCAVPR
# T4 sequence (P98170 whole entry): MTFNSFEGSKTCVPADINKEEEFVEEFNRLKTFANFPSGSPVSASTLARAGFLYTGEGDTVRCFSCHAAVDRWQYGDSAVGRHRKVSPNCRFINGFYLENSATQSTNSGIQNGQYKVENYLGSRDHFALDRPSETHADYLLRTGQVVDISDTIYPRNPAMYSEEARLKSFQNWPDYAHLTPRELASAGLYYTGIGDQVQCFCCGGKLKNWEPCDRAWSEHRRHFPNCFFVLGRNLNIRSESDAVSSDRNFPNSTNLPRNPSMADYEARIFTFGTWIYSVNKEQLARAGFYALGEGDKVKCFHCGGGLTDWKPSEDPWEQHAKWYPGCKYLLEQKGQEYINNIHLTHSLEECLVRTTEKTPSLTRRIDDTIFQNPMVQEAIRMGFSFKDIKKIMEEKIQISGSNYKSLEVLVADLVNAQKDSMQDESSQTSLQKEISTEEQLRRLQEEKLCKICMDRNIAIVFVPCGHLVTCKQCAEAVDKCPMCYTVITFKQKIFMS
# T1 sequence (Q9NZJ5 whole entry): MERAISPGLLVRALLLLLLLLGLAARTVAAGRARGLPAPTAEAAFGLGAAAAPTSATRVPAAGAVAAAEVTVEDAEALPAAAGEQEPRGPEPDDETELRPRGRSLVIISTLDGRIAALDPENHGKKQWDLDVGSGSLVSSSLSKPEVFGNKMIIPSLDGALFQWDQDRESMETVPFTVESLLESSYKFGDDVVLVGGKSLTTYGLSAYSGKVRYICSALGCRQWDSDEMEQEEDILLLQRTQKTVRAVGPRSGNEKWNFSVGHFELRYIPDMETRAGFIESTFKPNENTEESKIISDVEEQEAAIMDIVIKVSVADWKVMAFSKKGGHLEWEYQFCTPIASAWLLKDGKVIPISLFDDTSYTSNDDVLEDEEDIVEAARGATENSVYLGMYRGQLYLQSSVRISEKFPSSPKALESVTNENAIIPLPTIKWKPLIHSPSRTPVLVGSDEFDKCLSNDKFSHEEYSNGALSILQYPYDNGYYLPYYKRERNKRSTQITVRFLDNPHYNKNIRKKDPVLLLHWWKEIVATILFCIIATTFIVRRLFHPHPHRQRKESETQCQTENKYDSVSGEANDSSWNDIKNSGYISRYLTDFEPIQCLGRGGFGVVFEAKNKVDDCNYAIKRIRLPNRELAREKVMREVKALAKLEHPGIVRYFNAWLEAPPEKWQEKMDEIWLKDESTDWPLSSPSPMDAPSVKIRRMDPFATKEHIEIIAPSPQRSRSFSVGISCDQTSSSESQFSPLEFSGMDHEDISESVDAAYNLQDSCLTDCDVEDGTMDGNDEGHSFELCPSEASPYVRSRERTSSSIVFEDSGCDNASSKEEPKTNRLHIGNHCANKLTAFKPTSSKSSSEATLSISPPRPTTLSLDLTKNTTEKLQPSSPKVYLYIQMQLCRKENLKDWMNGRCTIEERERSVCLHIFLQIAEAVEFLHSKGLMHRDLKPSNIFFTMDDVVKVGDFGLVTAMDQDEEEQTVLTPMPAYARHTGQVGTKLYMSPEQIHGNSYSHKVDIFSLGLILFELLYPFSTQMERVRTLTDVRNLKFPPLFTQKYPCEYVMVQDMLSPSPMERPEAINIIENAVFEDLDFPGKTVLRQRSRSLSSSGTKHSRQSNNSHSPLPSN
# Heat shock 70 kDa protein 1A, sequence (P0DMV8 whole entry): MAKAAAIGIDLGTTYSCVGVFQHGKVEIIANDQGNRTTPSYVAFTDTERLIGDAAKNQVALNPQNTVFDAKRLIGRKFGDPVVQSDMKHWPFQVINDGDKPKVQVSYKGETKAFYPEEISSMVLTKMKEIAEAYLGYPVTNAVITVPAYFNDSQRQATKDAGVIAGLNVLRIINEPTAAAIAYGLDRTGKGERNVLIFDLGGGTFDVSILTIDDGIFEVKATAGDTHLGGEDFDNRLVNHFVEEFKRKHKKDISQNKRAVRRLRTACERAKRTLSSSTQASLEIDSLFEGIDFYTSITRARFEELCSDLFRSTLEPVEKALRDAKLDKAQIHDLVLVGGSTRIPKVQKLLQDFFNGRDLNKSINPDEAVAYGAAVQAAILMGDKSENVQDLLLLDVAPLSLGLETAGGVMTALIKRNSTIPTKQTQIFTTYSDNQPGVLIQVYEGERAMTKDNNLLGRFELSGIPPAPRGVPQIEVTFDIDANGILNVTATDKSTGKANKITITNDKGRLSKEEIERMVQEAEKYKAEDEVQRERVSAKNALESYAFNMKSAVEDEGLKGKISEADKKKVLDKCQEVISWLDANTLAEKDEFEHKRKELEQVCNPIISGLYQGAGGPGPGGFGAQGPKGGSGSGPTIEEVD
# DNA dC->dU-editing enzyme APOBEC-3A, sequence (P31941 whole entry): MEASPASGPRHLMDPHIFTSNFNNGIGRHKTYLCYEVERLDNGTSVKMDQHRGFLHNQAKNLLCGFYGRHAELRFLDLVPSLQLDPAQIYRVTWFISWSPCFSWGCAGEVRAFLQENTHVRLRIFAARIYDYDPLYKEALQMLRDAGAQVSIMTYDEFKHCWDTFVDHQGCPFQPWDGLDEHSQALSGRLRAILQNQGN
# Polyadenylate-binding protein 1, sequence (P11940 whole entry): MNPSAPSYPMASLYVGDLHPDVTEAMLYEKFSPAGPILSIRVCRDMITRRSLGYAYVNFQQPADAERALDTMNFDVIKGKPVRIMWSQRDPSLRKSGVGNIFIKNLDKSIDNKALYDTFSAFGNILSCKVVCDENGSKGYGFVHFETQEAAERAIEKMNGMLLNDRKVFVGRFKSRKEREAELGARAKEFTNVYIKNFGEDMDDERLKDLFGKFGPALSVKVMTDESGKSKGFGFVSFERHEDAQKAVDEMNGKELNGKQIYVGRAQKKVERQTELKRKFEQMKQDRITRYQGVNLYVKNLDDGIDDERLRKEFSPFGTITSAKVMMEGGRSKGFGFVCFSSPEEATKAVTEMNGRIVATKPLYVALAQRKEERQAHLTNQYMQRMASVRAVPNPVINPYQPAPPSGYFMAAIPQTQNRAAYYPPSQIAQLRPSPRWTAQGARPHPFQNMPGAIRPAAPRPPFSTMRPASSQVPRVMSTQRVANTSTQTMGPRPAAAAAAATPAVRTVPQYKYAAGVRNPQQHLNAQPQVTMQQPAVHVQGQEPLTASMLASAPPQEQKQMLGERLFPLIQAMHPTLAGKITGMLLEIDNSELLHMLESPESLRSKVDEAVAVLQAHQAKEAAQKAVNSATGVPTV
# Neurotensin receptor type 1, sequence (P30989 whole entry): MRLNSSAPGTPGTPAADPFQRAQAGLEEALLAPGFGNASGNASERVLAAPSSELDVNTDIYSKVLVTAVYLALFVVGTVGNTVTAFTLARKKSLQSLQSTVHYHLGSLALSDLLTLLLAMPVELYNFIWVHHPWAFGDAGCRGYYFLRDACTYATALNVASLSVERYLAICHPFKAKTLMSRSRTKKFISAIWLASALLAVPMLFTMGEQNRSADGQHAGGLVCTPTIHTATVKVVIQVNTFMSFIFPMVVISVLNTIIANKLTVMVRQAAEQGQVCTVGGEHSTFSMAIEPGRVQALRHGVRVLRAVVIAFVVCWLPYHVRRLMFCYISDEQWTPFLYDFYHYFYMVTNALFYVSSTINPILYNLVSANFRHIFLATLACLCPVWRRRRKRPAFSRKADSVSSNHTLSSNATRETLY
# Glyceraldehyde-3-phosphate dehydrogenase, sequence (P04406 whole entry): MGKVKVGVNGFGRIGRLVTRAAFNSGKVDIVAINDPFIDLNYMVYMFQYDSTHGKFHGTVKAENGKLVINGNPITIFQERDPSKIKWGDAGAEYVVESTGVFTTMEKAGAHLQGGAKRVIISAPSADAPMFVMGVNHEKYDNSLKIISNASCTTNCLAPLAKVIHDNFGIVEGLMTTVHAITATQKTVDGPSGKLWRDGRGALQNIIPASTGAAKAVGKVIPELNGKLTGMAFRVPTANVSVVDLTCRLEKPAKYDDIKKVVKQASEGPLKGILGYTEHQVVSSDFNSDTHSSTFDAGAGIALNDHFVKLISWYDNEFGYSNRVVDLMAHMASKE
# Photoreceptor-specific nuclear receptor, sequence (Q9Y5X4 whole entry): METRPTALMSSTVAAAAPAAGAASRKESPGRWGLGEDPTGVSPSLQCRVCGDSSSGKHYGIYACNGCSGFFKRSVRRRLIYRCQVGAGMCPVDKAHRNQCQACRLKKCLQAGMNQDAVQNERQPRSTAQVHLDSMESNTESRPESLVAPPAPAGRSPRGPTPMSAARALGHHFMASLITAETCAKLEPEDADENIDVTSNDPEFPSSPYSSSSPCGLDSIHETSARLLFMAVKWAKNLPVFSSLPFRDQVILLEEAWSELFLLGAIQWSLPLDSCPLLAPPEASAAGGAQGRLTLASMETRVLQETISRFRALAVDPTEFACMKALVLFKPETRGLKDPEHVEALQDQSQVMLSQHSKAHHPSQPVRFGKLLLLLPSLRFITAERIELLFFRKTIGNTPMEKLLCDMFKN
structure (smiles),measurement,setting,value
COC(=O)c1ccccc1NC(=S)NC(=O)c1ccccc1C,IC50,[1],> 50 µM (not active)
same,IC50,[2],> 50 µM (not active)
c1ccc(CN2CCC(Nc3nc(-c4ccccc4)nc4ccccc34)CC2)cc1,CC50,[3],20.3 µM (active)
same,AC50,[4],5.72 µM (active)
same,EC50,[5],12.3 µM (active)
same,EC50,[6],9.69 µM (active)
same,EC50,[7],19.6 µM (active)
CCC(C(=O)Nc1cccc(C(=O)O)c1C)c1ccccc1 (stereo not given),EC50,[8],> 55.7 µM (not active)
same,EC50,[9],> 55.7 µM (not active)
O=C(Nc1ccc2c(c1)OCO2)C(c1ccccc1)N1CCCCC1 (stereo not given),IC50,Staphylococcus aureus,1.26 µM (active)
O=C1C=CC(=O)C(C2=C3C(=O)N(CCc4ccccc4)CC(=O)N3CCC2)=C1,IC50,Perilipin-1/ABHD5,4.37 µM (active)
same,EC50,[10],45.9 µM (active)
same,IC50,Hexokinase HKDC1,3.73 µM (active)
same,IC50,[11],5.72 µM (active)
same,IC50,[12],4.75 µM (not active)
same,EC50,[13],14.9 µM (inconclusive)
same,IC50,[14],8.15 µM (active)
same,IC50,[15],> 100 µM (inactive)
same,IC50,Beta-galactosidase,> 66.6 µM (inactive)
O=C(Nc1ccc2c(c1)C1C=CCC1C(C(=O)O)N2)c1ccc(Cl)cc1Cl (stereo not given),IC50,[16],> 100 µM (not active)
same,IC50,[17],> 100 µM (not active)
same,IC50,[18],> 100 µM (not active)
CC(C)C(OC(=O)c1ccco1)C(=O)NCc1ccco1 (stereo not given),IC50,[19],> 100 µM (inactive)
same,IC50,[20],58 µM (active)
O=Cc1cn(Cc2ccc(F)cc2)c2ccccc12,EC50,[21],< 0.1 µM (active)
same,EC50,[22],7.56 µM (active)
same,EC50,cells,1.05 µM (active)
same,EC50,[23],1.85 µM (active)
same,EC50,[24],> 12 µM (inconclusive)
Cc1cccc(-n2c(=S)[nH]c3c(oc4ccccc43)c2=O)c1,IC50,[25],6.64 µM (active)
same,IC50,[26],5.11 µM (active)
same,IC50,[27],> 100 µM (inactive)
same,IC50,[28],> 100 µM (not active)
O=C(NCc1cc(Cl)cc(Cl)c1)c1cccs1,Kd,Chaperone protein dnaK,2.8 µM (active)
CCN1CCC[C@@H]1CNC(=O)c1cc(S(N)(=O)=O)ccc1OC,AC50,Cytochrome P450 2D6,39.8 µM (inconclusive)
